From PMC8667043, “First-in-Class Inhibitors of the Ribosomal Oxygenase MINA53” (Journal of Medicinal Chemistry, 2021)

What was measured:
U-87MG cells = test: Western blot of H2AX serine 139 phosphorylation (γ-H2AX); assay type: cell-based, human; design: dose or concentration left out as unconfirmed; details: time-dependent (2, 4, 8 h)
Description: (§1) Proteins were transferred onto nitrocellulose or PVDF membranes and incubated with rabbit γ-H2AX (#9718, Cell Signaling Technologies, MA) anti-GAPDH (Sc47724, Santa Cruz Biotechnology, Santa Cruz, CA), rabbit anti-RPL27A (Abcam, ab74731), goat anti-RPL8 (Abcam, ab63941), horseradish peroxidase (HRP)-conjugated anti-HA (Roche, 12013819001), and HRP-conjugated anti-β-actin (Abcam, ab-49900).
Figure S19. Western blot analysis and relative densitometric analysis of the phosphorylated form of H2AX (ser139) on U-8 7MG glioma cells exposed for the indicated times to 1 (negative control), […]
Doxorubicin was used as a positive control (0.5 μM, 8 h). GAPDH expression was used as a control loading. Results are express ed as f old changes over […]

HA-tagged MINA53 = target: T1, HA-tagged MINA53 (Homo sapiens, UniProt Q8IUF8); test: Substrate trapping by anti-HA immunoprecipitation (RPL27A); assay type: cell-based; details: HEK293T, HeLa, U-87MG cells; 100 μM, 18 h
T1 construct: expressed in transfected cells; host or cells: HEK293T, HeLa, U-87MG (transient, pEF6 vector)
T1 sequence (Q8IUF8 whole entry): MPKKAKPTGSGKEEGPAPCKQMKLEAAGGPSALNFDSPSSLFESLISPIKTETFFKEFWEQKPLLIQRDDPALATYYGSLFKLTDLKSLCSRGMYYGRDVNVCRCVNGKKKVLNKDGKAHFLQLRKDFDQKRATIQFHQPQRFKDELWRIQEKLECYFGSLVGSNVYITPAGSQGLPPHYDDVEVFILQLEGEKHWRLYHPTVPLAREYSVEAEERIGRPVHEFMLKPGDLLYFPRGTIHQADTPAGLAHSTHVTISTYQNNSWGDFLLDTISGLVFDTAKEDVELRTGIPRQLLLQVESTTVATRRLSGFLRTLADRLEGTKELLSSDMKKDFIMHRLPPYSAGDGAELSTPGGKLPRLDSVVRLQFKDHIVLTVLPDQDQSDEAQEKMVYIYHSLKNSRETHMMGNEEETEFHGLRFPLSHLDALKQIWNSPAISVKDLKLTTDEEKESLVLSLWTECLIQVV
Description: as §1
For immunoprecipitation, the cells were harvested on ice and lysed by rotation for 1 h at 4 °C in JIES buffer. The cell debris was subsequently pelleted by centrifugation (10 min at 21 910g at 4 °C), and the supernatant was incubated overnight at 4 °C with Pierce anti-HA agarose beads (Thermo Scientific, 26181). The next day, the beads were washed 6 times with JIES buffer before the immunoprecipitates were eluted for 15 min at 1400 rpm at room temperature using 1 mg/mL HA peptide (Thermo Scientific, 26184) dissolved in JIES buffer. The eluted samples were then prepared in 1× Laemmli loading buffer (6x: 125 mM Tris-HCl [pH 6.8], 6% (w/v) SDS, 50% (v/v) glycerol, 225 mM dithiothreitol (DTT), and 0.1% (w/v) bromophenol blue) and boiled for 5 min for detection by western blot.
Plasmid DNA transfections were performed using a FuGENE 6 transfection reagent (Promega, E2691). Briefly, a transfection mix of DNA and transfection reagent at a ratio of 1:3 was made up in Opti-MEM (Gibco, 31985070) and incubated for 30 min at room temperature before the complexes were added to the cells. A total of 500 ng of DNA was used per mL of culturing medium. The cells were seeded 24 h prior to transfection, and cell treatments were performed 24 h post-transfection.
Figure S18. MINA53 substrate trapping with inhibitors 9 and 10 in cells. HEK293T (A), HeL a (B) and U-87MG (C) cel ls transiently expressing an empty (EV), wild- type (WT) or catalytically […]
control for 18 h prior toanti -HAimmunoprecipitation (IP). Anti -HA IPs were immunoblotted for RPL27A (17 kDa) and HA. β -Actin was used as loading control. […]

HEK293T = test: MTT cell viability assay; assay type: cell-based, human; details: 72, 96, 120 h
Description: (§2) Human commercially available established cancer cell lines HT-29 colon carcinoma (ATCC, HTB-38), U-87MG glioblastoma (ATCC, HTB-14), and MNK-45 gastric cancer (a gift from Dr. M. Broggini, Mario Negri Institute) were cultured in RPMI medium (Euroclone, Milan, IT) supplemented with 10% inactivated fetal bovine serum (HyClone, Thermo Scientific, South Logan, UT), 1% L-glutamine (Euroclone), and 100 μg/mL penicillin/streptomycin (Euroclone). HEK293T and HeLa cells were cultured in Dulbecco’s Modified Eagle Medium (DMEM, Gibco) supplemented with 10% (v/v) fetal bovine serum (FBS, Sigma) and 100 international units/mL (IU/mL) penicillin and 100 μg/mL streptomycin (Gibco). The cells were routinely tested for mycoplasma contamination and STR-authenticated.
Twenty-four hours following seeding, exponentially growing cells were treated with the different compounds at concentrations ranging from 10 to 100 μM for 72–120 h. Aqueous DMSO (0.5%, v/v) was used as a control (untreated). Cell viability was determined by the 3-(4,5-dimethylthiazol-2-yl)-2,5-diphenyltetrazolium bromide (MTT) colorimetric assay (Sigma-Aldrich). In summary, exponentially growing cancer cells were seeded in sextuplicate in 96-well culture plates (1.5 × 10^3 cells/well). After 24 h, the compounds were added at concentrations ranging from 10 to 100 μM. The effect of compounds on cancer cell proliferation was assessed by measuring the MTT dye absorbance of the cells as reported.[52] […] The effect of different compounds or combinations (drug concentration ratio 1:20, doxorubicin: compound) on U-87MG cancer cell viability was assessed by measuring the MTT dye absorbance of cells. The interaction between doxorubicin (Doxo) and different compounds was evaluated based on the combination index (CI) using the CI equation through CalcuSyn software (Biosoft, Cambridge, U.K.). […]
Figure S17. Antiproliferative effects of M INA53 inhibitors on HeLa (A) and HEK293T (B) cells as determined by the MTT method after exposure for 72, 96, and 120 h to the negative control 1, and the MINA53 inhibitors 9 and 10. […]

U-87MG malignant glioma = test: MTT cell viability assay; assay type: cell-based, human; details: 72, 96, 120 h, 10 to 100 μM, 10′ to a similar extent as 10
Description: as §2
(§3) Twenty-four hours following seeding, exponentially growing cells were treated with the different compounds at concentrations ranging from 10 to 100 μM for 72–120 h. Aqueous DMSO (0.5%, v/v) was used as a control (untreated). Cell viability was determined by the 3-(4,5-dimethylthiazol-2-yl)-2,5-diphenyltetrazolium bromide (MTT) colorimetric assay (Sigma-Aldrich). In summary, exponentially growing cancer cells were seeded in sextuplicate in 96-well culture plates (1.5 × 10^3 cells/well). After 24 h, the compounds were added at concentrations ranging from 10 to 100 μM. The effect of compounds on cancer cell proliferation was assessed by measuring the MTT dye absorbance of the cells as reported.[52] For combination treatments, the cells were treated with each of three compounds, either alone or in combination with doxorubicin. In particular, U-87MG cells were treated with doxorubicin alone or in combination with different MINA53 inhibitors for 24 h. The effect of different compounds or combinations (drug concentration ratio 1:20, doxorubicin: compound) on U-87MG cancer cell viability was assessed by measuring the MTT dye absorbance of cells. The interaction between doxorubicin (Doxo) and different compounds was evaluated based on the combination index (CI) using the CI equation through CalcuSyn software (Biosoft, Cambridge, U.K.). Synergism CI < 0.9, additivity 0.9 < CI < 1.1, antagonism CI > 1.1.

HT-29 colon carcinoma = test: MTT cell viability assay; assay type: cell-based, human; details: 72, 96, 120 h, 10 to 100 μM, 10′ to a similar extent as 10
Description: as §2, §3

MNK-45 gastric carcinoma = test: MTT cell viability assay; assay type: cell-based, human; details: 72, 96, 120 h, 10 to 100 μM, 10′ to a similar extent as 10
Description: as §2, §3

Structure (SMILES)	γ-H2AX (H2AX serine 139 phosphorylation) (U-87MG cells)	binding (trapping) of endogenous RPL27A substrate to HA-tagged MINA53 (HA-tagged MINA53)	effect on cell viability, HEK293T (HEK293T)	effect on cell viability, U-87MG (U-87MG malignant glioma)	effect on cell viability, HT-29 (HT-29 colon carcinoma)	effect on cell viability, MNK-45 (MNK-45 gastric carcinoma)
O=C(O)c1cnc(SCCc2ccccc2)[nH]c1=O [compound 9, 2-(Phenethylthio)-3,4-dihydro-4-oxopyrimidine-5-carboxylic Acid]	strong γ-H2AX increase	increased binding	sensitivity	sensitive	only a marginal effect	sensitive
O=C(O)c1cnc(SCCCc2ccccc2)[nH]c1=O [compound 10, 2-((3-Phenylpropyl)thio)-3,4-dihydro-4-oxopyrimidine-5-carboxylic Acid]	strong γ-H2AX increase	increased binding	sensitivity	sensitive	only a marginal effect	sensitive
O=C(O)c1c[nH]c(=S)[nH]c1=O [compound 1]	not increased	not	no effect	no effect	no effect	no effect
